{"source": "patent US20160367580A1", "about": "“IMPROVED EXTENDED-ACTION TILMICOSIN AND USE THEREOF IN TREATMENT OF BOVINE RESPIRATORY DISEASE COMPLEX (BRD) AND IN DRY COW PERIOD” (UNIVERSIDAD NACIONAL AUTONOMA DE MEXICO, priority 2014, published 2016)", "origin": "cited, not measured here", "key": {"[1]": {"system": "Staphylococcus aureus", "settings": "most of Staphylococcus aureus"}, "[2]": {"settings": "in vivo"}}}
{"smiles": "CC[C@H]1OC(=O)C[C@@H](O)[C@H](C)[C@@H](O[C@@H]2O[C@H](C)[C@@H](O)[C@H](N(C)C)[C@H]2O)[C@@H](CCN2C[C@H](C)C[C@H](C)C2)C[C@@H](C)C(=O)/C=C/C(C)=C/[C@@H]1CO[C@@H]1O[C@H](C)[C@@H](O)[C@@H](OC)[C@H]1OC", "note": "[tilmicosin]", "values": [{"measurement": "CMI value", "setting": "[1]", "result": "< 1.0", "unit": "µg/mL"}, {"measurement": "plasma concentration not to be exceeded (cardiotoxicity with tachycardia)", "setting": "[2]", "result": "≤ 4000", "unit": "ng/mL"}]}
